Assay in all cases: Methyl transferase scintillation proximity assay
Type in all cases: biochemical
Details in all cases: average of two measurements; for inhibition at 10 µM: read-out: MTases Inhibition (%)

The target in one experiment is T1, NSD2 (Homo sapiens, UniProt O96028).
T1 construct: purchased DiscoverX BROMOscan (bromodomains); SGC in-house methyltransferase panel
T1 sequence (O96028 1-1365): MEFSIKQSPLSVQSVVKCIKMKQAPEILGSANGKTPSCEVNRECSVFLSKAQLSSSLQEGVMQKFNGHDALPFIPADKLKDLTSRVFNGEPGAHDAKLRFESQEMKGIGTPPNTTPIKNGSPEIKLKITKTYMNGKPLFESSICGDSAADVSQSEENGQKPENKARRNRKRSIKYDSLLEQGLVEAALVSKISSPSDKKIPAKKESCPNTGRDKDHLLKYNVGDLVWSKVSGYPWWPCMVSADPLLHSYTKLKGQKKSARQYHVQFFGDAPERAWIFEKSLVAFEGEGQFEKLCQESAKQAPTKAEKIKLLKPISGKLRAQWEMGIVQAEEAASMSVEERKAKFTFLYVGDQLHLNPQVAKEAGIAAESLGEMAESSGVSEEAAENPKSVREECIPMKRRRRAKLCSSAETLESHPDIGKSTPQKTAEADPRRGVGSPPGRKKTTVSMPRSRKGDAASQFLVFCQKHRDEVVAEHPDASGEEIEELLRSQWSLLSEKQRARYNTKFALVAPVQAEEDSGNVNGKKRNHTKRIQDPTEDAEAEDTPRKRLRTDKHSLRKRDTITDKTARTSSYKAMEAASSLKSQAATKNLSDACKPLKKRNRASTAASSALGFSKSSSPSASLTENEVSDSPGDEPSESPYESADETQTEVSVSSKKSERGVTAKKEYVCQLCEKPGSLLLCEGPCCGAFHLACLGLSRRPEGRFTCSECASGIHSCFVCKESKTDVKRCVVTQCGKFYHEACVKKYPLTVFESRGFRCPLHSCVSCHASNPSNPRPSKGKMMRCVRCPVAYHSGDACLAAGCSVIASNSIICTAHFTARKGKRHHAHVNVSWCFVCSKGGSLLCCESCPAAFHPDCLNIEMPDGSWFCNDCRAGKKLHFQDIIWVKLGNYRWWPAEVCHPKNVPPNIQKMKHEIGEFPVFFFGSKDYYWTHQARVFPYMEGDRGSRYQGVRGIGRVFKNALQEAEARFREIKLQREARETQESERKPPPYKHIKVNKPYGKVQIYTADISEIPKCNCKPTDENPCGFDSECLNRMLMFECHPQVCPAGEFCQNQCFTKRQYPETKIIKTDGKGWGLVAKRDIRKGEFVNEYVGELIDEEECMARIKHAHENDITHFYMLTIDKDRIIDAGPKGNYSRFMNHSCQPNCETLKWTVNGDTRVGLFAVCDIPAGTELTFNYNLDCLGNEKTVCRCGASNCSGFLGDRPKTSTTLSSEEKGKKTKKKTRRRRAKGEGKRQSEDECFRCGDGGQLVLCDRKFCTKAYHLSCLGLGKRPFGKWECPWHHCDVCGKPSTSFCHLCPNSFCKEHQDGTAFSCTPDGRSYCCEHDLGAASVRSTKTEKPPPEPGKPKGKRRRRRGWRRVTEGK
The gist of the method: (§1)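 Methylation is monitored as incorporation of tritium from ^3H-SAM into a biotinylated substrate, with cofactor and substrate near apparent Km for every enzyme. After guanidine quench and 1 h plate capture, CPM is scaled between no-enzyme background and uninhibited control.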

The target in another experiment is T2, DOT1L (Homo sapiens, UniProt Q8TEK3).
T2 construct: purchased DiscoverX BROMOscan (bromodomains); SGC in-house methyltransferase panel
T2 sequence (Q8TEK3 whole entry): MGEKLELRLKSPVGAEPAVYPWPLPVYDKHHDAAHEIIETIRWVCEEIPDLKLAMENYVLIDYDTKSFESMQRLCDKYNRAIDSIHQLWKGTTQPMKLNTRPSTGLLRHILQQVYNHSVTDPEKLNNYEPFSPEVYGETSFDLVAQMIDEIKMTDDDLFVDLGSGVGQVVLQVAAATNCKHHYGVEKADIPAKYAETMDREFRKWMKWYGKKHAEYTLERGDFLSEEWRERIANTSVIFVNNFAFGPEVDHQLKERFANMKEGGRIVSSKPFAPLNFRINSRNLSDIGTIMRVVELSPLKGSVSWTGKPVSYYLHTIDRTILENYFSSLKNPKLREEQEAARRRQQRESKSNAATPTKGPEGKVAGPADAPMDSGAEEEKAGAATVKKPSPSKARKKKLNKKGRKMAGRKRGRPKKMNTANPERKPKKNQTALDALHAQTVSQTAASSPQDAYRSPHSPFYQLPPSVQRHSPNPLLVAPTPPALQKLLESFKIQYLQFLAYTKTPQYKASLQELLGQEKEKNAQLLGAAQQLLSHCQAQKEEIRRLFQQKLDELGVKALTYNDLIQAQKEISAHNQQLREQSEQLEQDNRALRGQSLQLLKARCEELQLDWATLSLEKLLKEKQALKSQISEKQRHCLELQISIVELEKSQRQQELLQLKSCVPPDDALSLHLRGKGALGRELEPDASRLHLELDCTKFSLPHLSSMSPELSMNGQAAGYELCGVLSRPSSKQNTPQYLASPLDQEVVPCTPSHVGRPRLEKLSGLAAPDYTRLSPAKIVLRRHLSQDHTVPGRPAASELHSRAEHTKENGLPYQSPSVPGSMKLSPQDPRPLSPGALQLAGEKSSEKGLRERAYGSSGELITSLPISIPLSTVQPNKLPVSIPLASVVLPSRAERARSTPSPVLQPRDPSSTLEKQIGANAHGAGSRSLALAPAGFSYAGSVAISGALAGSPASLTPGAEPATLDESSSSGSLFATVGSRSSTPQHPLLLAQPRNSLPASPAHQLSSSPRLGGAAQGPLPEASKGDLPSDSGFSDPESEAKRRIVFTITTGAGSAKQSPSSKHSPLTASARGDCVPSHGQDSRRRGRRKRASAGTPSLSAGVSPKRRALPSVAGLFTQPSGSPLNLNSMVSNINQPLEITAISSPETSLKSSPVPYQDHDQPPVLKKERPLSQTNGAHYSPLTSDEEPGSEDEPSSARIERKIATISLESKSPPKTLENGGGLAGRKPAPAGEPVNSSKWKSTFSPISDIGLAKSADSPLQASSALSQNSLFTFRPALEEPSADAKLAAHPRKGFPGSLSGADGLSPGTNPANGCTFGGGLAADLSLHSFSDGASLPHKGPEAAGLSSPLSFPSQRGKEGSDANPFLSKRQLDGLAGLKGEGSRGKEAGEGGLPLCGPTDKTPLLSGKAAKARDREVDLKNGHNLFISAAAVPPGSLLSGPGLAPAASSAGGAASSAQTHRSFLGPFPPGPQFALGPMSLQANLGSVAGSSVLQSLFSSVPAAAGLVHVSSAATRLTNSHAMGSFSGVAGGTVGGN
In outline:
as §1

Another experiment addresses T3, SUV39H2 (Homo sapiens, UniProt Q9H5I1).
T3 construct: purchased DiscoverX BROMOscan (bromodomains); SGC in-house methyltransferase panel
In outline: as §1

The target of the next experiment is T4, PRDM9 (Homo sapiens, UniProt Q9NQV7).
T4 construct: purchased DiscoverX BROMOscan (bromodomains); SGC in-house methyltransferase panel
The gist of the method: as §1

In the next experiment the target is T5, DNMT3A/3L (Homo sapiens, UniProt Q9Y6K1).
T5 construct: purchased DiscoverX BROMOscan (bromodomains); SGC in-house methyltransferase panel
The gist of the method:
as §1

A further experiment concerns the target T6, SUV420H2 (Homo sapiens, UniProt Q86Y97).
T6 construct: purchased DiscoverX BROMOscan (bromodomains); SGC in-house methyltransferase panel
In outline:
as §1

Another experiment addresses T7, DNMT3B/3L (Homo sapiens, UniProt Q9UBC3).
T7 construct: purchased DiscoverX BROMOscan (bromodomains); SGC in-house methyltransferase panel
In outline: as §1

The target of another experiment is T8, PRMT3 (Homo sapiens, UniProt O60678).
T8 construct: purchased DiscoverX BROMOscan (bromodomains); SGC in-house methyltransferase panel
In outline: as §1

The target in a further experiment is T9, NSD1 (Homo sapiens, UniProt Q96L73).
T9 construct: purchased DiscoverX BROMOscan (bromodomains); SGC in-house methyltransferase panel
T9 sequence (Q96L73 whole entry): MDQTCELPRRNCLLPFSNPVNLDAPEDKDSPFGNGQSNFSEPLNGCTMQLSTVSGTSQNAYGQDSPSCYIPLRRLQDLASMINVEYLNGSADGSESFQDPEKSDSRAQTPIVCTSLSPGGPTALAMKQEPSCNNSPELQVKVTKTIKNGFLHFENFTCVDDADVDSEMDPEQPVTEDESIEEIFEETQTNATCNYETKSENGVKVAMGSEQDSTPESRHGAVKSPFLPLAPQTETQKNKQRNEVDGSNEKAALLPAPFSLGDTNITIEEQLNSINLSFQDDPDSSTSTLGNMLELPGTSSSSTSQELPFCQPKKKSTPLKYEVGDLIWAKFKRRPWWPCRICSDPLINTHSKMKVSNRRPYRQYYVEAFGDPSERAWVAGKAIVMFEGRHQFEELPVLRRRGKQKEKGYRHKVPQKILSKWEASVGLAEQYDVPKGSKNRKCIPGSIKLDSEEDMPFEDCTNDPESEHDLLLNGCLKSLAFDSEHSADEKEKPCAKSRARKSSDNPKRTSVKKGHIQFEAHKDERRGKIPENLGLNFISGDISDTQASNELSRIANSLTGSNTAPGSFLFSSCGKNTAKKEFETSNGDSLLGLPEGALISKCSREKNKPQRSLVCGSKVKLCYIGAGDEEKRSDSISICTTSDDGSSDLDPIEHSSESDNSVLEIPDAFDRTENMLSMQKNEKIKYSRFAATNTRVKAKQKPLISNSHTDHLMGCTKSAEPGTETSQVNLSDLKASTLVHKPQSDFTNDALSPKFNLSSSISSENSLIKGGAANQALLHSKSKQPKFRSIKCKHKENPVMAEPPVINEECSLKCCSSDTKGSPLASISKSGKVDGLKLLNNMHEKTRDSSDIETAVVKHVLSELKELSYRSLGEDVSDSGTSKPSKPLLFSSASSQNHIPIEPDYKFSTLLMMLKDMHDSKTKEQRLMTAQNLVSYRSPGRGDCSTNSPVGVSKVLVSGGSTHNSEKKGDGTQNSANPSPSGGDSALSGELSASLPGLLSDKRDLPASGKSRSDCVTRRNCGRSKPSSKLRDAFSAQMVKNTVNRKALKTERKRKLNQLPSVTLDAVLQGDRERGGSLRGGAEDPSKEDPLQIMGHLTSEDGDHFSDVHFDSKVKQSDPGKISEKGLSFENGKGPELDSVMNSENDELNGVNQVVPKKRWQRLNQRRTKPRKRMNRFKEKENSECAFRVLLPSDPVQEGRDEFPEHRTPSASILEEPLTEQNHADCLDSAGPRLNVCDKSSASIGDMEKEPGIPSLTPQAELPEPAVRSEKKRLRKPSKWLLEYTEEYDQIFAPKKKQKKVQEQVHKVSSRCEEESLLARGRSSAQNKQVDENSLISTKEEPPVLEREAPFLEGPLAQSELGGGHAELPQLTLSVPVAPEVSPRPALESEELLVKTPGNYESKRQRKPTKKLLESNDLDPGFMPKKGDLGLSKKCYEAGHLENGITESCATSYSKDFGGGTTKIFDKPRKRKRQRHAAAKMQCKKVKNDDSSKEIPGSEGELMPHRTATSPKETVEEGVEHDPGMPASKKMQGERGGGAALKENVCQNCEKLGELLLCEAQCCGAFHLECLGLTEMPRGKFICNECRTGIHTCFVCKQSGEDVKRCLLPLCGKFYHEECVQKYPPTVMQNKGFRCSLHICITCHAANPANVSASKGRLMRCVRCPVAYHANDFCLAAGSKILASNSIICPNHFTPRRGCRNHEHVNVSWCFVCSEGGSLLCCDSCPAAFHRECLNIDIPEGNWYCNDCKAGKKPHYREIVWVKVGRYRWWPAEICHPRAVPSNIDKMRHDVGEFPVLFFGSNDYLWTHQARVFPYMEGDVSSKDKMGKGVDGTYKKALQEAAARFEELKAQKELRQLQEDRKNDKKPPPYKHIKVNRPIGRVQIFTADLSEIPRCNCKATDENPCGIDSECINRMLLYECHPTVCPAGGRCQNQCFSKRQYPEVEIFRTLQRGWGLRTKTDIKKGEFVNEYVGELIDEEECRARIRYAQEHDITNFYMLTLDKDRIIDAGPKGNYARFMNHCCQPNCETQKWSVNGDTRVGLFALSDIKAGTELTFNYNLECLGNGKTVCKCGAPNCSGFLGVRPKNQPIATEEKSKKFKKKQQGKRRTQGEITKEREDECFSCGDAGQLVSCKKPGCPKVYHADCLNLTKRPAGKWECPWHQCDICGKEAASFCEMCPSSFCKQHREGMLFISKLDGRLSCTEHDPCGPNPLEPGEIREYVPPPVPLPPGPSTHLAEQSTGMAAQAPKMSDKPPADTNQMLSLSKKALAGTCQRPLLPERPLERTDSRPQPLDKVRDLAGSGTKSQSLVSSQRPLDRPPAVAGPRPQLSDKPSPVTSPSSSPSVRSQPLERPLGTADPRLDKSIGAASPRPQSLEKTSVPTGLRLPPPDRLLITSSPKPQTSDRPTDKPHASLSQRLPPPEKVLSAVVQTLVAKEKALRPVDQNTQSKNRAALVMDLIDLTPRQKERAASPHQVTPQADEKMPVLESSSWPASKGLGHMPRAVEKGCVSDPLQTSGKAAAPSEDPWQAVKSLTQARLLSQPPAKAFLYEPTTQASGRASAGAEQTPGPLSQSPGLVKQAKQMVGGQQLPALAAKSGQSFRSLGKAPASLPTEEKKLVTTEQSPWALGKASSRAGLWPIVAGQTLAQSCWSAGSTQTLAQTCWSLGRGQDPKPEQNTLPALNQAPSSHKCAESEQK
In outline: as §1

For another experiment, the target named is T10, SETD8 (Homo sapiens, UniProt Q9NQR1).
T10 construct: purchased DiscoverX BROMOscan (bromodomains); SGC in-house methyltransferase panel
T10 sequence (Q9NQR1 1-393): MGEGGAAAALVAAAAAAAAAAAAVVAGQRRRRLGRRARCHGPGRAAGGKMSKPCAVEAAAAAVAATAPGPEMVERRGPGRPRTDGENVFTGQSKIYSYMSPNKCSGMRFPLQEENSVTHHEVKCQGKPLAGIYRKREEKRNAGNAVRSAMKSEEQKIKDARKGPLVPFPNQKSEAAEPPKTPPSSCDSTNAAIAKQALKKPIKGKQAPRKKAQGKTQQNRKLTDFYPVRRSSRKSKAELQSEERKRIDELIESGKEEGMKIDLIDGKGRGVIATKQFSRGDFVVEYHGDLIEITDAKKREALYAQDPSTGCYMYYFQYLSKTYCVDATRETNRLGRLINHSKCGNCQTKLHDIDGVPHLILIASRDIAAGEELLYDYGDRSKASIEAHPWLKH
The gist of the method:
as §1

In a further experiment the target is T11, SUV39H1 (Homo sapiens, UniProt O43463).
T11 construct: purchased DiscoverX BROMOscan (bromodomains); SGC in-house methyltransferase panel
T11 sequence (O43463 1-412): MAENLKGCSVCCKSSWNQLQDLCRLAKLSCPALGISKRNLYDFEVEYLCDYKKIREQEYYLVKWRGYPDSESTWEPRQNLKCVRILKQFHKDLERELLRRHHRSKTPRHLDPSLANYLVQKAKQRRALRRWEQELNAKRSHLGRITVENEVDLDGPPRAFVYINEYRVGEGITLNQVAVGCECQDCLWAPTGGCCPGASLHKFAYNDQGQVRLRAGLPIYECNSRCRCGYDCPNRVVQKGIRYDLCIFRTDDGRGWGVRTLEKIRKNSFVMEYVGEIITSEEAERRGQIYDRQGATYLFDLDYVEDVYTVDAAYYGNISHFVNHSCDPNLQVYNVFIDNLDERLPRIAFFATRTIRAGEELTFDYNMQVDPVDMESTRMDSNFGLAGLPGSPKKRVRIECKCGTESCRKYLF
The gist of the method: as §1

T3 sequence (Q9H5I1 whole entry): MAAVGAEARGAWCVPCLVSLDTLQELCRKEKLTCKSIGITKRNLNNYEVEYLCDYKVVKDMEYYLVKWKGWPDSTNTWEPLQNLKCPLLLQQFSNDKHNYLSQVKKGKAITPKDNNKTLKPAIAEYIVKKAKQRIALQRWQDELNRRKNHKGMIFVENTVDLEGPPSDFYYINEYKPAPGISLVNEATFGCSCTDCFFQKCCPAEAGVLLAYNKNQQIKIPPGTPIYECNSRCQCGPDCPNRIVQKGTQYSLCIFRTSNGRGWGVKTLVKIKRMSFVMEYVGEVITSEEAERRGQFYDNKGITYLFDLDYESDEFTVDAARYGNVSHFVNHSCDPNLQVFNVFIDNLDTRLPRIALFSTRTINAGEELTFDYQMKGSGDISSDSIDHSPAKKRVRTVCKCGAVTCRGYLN
T6 sequence (Q86Y97 whole entry): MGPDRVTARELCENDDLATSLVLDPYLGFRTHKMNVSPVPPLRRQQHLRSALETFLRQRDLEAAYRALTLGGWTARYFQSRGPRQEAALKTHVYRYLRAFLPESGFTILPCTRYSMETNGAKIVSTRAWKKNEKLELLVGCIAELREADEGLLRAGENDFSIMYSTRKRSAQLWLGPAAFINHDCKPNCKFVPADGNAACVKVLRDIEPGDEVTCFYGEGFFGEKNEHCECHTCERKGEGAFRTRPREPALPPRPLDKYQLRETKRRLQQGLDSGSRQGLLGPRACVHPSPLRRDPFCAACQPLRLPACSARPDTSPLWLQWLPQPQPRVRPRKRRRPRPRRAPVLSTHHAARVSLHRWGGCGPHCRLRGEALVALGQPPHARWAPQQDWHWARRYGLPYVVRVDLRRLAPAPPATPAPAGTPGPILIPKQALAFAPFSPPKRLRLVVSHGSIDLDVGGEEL

`Cc1c(NC(=O)c2cc(C(N)=O)nc3cc(F)ccc23)c(C(F)(F)F)nn1Cc1ccc(C(C)(C)C)cc1` [BAY-588]: the inhibition at 10 µM on NSD2 was 2%; on DOT1L, 3%; on SUV39H2, 12%; on PRDM9 it was 3%; at DNMT3A/3L it was -1%; at SUV420H2 it was -3%. For the same compound, the inhibition at 10 µM at DNMT3B/3L is -6%; at PRMT3, 5%; at NSD1, 11%; on SETD8, -3%; on SUV39H1, 12%.
Turning to `COc1cc(Cl)c(C(=O)N[C@@H](CN[C@H]2CC[C@@H](N)CC2)Cc2ccc(C#N)cc2)cc1-c1ccc(CN[C@H](C)c2ccc(C)cc2)o1` [BAY-850], the inhibition at 10 µM on NSD2 is -1%; on DOT1L it was 3%; at SUV39H2, -2%; on PRDM9 it was 10%; on DNMT3A/3L, 21%; on SUV420H2, 0%. For the same compound, the inhibition at 10 µM was 28% at DNMT3B/3L; 3% at PRMT3; 2% on NSD1; 2% at SETD8; 5% at SUV39H1.
Regarding `Cc1c(NC(=O)c2cc(C(N)=O)nc3cc(F)ccc23)c(C(F)(F)F)nn1Cc1ccc(C#N)cc1` [BAY-876], the inhibition at 10 µM on NSD2 was 0%; at DOT1L, -6%; on SUV39H2 it was -2%; on PRDM9, 0%; at DNMT3A/3L, 6%; at SUV420H2 it was -1%. Besides, the inhibition at 10 µM is 1% on DNMT3B/3L; 1% at PRMT3; 2% at NSD1; 0% on SETD8; 16% on SUV39H1.
Consider `CN1C[C@H](Nc2cnn(C)c(=O)c2Br)C[C@H](c2ccccc2)C1` [GSK4027], for which the inhibition at 10 µM was 15% on NSD2; -2% on DOT1L; 5% at SUV39H2; 3% on PRDM9; 3% at DNMT3A/3L; -1% at SUV420H2. In addition, the inhibition at 10 µM on DNMT3B/3L was 1%; on PRMT3 it was 2%; at NSD1, 4%; at SETD8, 10%; at SUV39H1 it was -3%.
Take `COc1ccccc1C(=O)Nc1cc2c(cc1N1CCNC[C@H]1C)n(C)c(=O)n2C` [GSK6853]: the “MTases Inhibition (%)” value at NSD2 (10µM) was 13%; at DOT1L (10µM), 10%; at SUV39H2 (10µM), 1%; on PRDM9 (10µM) it was -2%; at DNMT3A/3L (10µM), 13%; on SUV420H2 (10µM), -2%. Also, the “MTases Inhibition (%)” value on DNMT3B/3L (10µM) is on record as 8%; on PRMT3 (10µM) it was 1%; on NSD1 (10µM), 1%; on SETD8 (10µM) it was -6%; at SUV39H1 (10µM), -3%.
As to `CO[C@H]1CNC[C@@H](OCC2CCC(F)(F)CC2)[C@@H]1Nc1ncc(-c2cncc(C)c2)c2cc(C)c(=O)[nH]c12` [GSK8814], the inhibition at 10 µM amounted to 24% on NSD2; 5% on DOT1L; 3% at SUV39H2; 0% at PRDM9; 8% at DNMT3A/3L; 0% at SUV420H2. The inhibition at 10 µM on DNMT3B/3L is 18%; on PRMT3, 3%; at NSD1, 19%; at SETD8, -7%; at SUV39H1, -2%.
Regarding `Cc1nnc2c3ccccc3c(N[C@@H](C)[C@H](c3ccccc3)N(C)C)nn12` [L-Moses], the inhibition at 10 µM on NSD2 was 2%; on DOT1L it was 1%; at SUV39H2, 5%; on PRDM9, 4%; on DNMT3A/3L, 2%; at SUV420H2, 6%. In addition, the inhibition at 10 µM at DNMT3B/3L is -1%; on PRMT3, 0%; at NSD1, -6%; at SETD8 it was -8%; on SUV39H1, -2%.
Regarding `CN(C)CCCOc1ccc(-c2cc(NCCCn3cccn3)nc(S(C)(=O)=O)n2)cc1` [TP-238], the inhibition at 10 µM was 3% on NSD2; 6% on DOT1L; 7% at SUV39H2; -1% on PRDM9; 8% on DNMT3A/3L; 0% on SUV420H2. Further, the inhibition at 10 µM on DNMT3B/3L was 0%; on PRMT3, 5%; on NSD1 it was 1%; on SETD8, -6%; on SUV39H1, -1%.
